According to patent publication US7741352B2, “KCNQ channel modulating compounds and their pharmaceutical use” (Neurosearch A/S, priority 2003, dated 2010):

Question: For `O=C(O)c1ccc(OCc2cccc(-c3ccc4c(c3)OCCCO4)c2)cc1O` [Compound 3-35, 4-[3-(3,4-Dihydro-2H-benzo[b][1,4]dioxepin-7-yl)-benzyloxy]-2-hydroxy-benzoic acid], which melting point is on record?
Answer: 188 to 192 °C (dec.)

Question: Which melting point does the source give for `O=C(O)c1ccc(OCc2cccc(-c3ccc4c(c3)OCCO4)c2)cc1O` [Compound 3-36, 4-[3-(2,3-Dihydro-benzo[1,4]dioxin-6-yl)-benzyloxy]-2-hydroxy-benzoic acid] here?
Answer: 170 to 175 °C (dec.)

Question: With `O=C(O)c1ccc(OCc2cccc(-c3cccc4ccccc34)c2)cc1O` [Compound 3-37, 2-Hydroxy-4-(3-naphthalen-1-yl-benzyloxy)-benzoic acid] as the compound, how does the melting point read?
Answer: 156 to 164 °C (dec.)

Question: For `O=C(O)c1ccc(OCc2cccc(-c3ccc4ccccc4c3)c2)cc1O` [Compound 3-38, 2-Hydroxy-4-(3-naphthalen-2-yl-benzyloxy)-benzoic acid], which melting point is on record?
Answer: 190 to 194 °C (dec.)

Question: Which melting point does the source give for `CN(C)S(=O)(=O)c1ccc(-c2cccc(COc3ccc(C(=O)O)c(O)c3)c2)cc1` [Compound 3-39, 4-(4′-Dimethylsulfamoyl-biphenyl-3-ylmethoxy)-2-hydroxy-benzoic acid] here?
Answer: 196 to 204 °C (dec.)

Question: With `Cc1noc(C)c1-c1cccc(COc2ccc(C(=O)O)c(O)c2)c1` [Compound 3-40, 4-[3-(3,5-Dimethyl-isoxazol-4-yl)-benzyloxy]-2-hydroxy-benzoic acid] as the compound, how does the melting point read?
Answer: 155 to 176 °C (dec.)

Question: Which melting point does the source give for `N#Cc1cccc(-c2cccc(COc3ccc(C(=O)O)c(O)c3)c2)c1` [Compound 3-41, 4-(3′-Cyano-biphenyl-3-ylmethoxy)-2-hydroxy-benzoic acid] here?
Answer: 155 to 170 °C (dec.)

Question: For `COc1ccc(-c2cccc(COc3ccc(C(=O)O)c(O)c3)c2)c(OC)c1` [Compound 3-42, 4-(2′,4′-Dimethoxy-biphenyl-3-ylmethoxy)-2-hydroxy-benzoic acid], which melting point is on record?
Answer: 176 to 178 °C (dec.)

Question: Which melting point does the source give for `O=C(O)c1ccc(OC2CCOCC2)cc1O` [Compound 4-1, 2-hydroxy-4-(tetrahydro-pyran-4-yloxy)-benzoic acid] here?
Answer: 179 to 181 °C (dec.)

Question: For `O=C(Oc1ccc(C(=O)O)c(O)c1)c1ccc(-c2ccccc2)cc1` [Compound 5-1, 4-(4-Phenyl-benzoyloxy)-2-hydroxy benzoic acid], which melting point is on record?
Answer: > 275 °C

Question: Which melting point does the source give for `O=C(O)c1ccc(NCc2cccc([N+](=O)[O-])c2)cc1O` [Compound 6-1, 2-Hydroxy-4-(3-nitro-benzylamino)-benzoic acid] here?
Answer: 189 °C (dec.)

Question: For `O=C(O)c1ccc(NCc2ccc(OC(F)F)cc2)cc1O` [Compound 6-2, 4-(4-Difluoromethoxy-benzylamino)-2-hydroxy-benzoic acid], which melting point is on record?
Answer: 161 to 162 °C

Question: For `CC(=O)Nc1ccc(CNc2ccc(C(=O)O)c(O)c2)cc1` [Compound 6-3, 4-(4-Acetylamino-benzylamino)-2-hydroxy-benzoic acid], which melting point is on record?
Answer: 154 °C

Question: With `O=C(O)c1ccc(NCc2ccc(F)cc2)cc1O` [Compound 6-4, 4-(4-Fluoro-benzylamino)-2-hydroxy-benzoic acid] as the compound, how does the melting point read?
Answer: 175 °C (dec.)

Question: For `COc1cc(NC(=O)c2ccc(-c3ccccc3)cc2)ccc1C(=O)O` [Compound 7-1], which melting point is on record?
Answer: 179 to 181 °C

Question: With `O=C(Nc1ccc(C(=O)O)c(O)c1)c1ccc(-c2ccccc2)cc1` [Compound 7-2, 4-[(Biphenyl-4-carbonyl)-amino]-2-hydroxy benzoic acid] as the compound, how does the melting point read?
Answer: 266 °C (dec.)

Question: Which melting point does the source give for `O=C(O)c1ccc(Oc2ccc([N+](=O)[O-])cc2)cc1O` [Compound 8-1, 2-Hydroxy-4-(4-nitro-phenoxy)-benzoic acid] here?
Answer: 195 to 197 °C

Question: For `Nc1ccc(Oc2ccc(C(=O)O)c(O)c2)cc1` [Compound 8-2, 4-(4-Amino-phenoxy)-2-hydroxy-benzoic acid], which melting point is on record?
Answer: 187 to 188 °C

Question: Which melting point does the source give for `O=C(O)c1ccc(Oc2ccc(-c3ccccc3)cc2[N+](=O)[O-])cc1O` [Compound 8-4, 2-Hydroxy-4-(3-nitro-biphenyl-4-yloxy)-benzoic acid] here?
Answer: > 200 °C (dec.)
